# According to the NIST ThermoML archive (doi:10.1016/j.jct.2013.05.006):
# Numbers after ± are expanded uncertainties.
# Test: activity coefficient (dimensionless); of the first substance listed, at infinite dilution; xn = mol fraction of the nth substance listed
# Details: 298 K; 101 kPa; Liquid; Chromatography; x1 = 0
row,SMILES,activity coefficient
1,"Clc1ccccc1Cl [1,2-dichlorobenzene] + NC=O",159 ± 17
2,Brc1ccccc1 [bromobenzene] + NC=O,107 ± 13
3,c1ccc(-c2ccccc2)cc1 [biphenyl] + NC=O,1320 ± 150
4,Fc1ccccc1 [fluorobenzene] + NC=O,54 ± 6
5,c1ccc2ccccc2c1 [naphthalene] + NC=O,533 ± 63
6,Clc1ccccc1 [chlorobenzene] + NC=O,94 ± 16
7,Cc1ccccc1 [toluene] + NC=O,81 ± 8
8,c1ccccc1 [benzene] + NC=O,53 ± 6
